Like-named read-outs stand apart in the source and are kept apart here.
Key:
human CB2 receptor = target: T1, human CB2 receptor (Homo sapiens, UniProt P34972); assay: CB2 radioligand competitive binding assay ([3H]CP 55,940 displacement); conditions: for Selectivity CB2: fold difference between CB1 and CB2 binding, printed in column of receptor with higher affinity, 1.00 in both = same affinity
T1 construct: host or cells: CHO-K1 (Chinese hamster ovary) cells, stably transfected; membranes prepared in house
T1 sequence (P34972 whole entry): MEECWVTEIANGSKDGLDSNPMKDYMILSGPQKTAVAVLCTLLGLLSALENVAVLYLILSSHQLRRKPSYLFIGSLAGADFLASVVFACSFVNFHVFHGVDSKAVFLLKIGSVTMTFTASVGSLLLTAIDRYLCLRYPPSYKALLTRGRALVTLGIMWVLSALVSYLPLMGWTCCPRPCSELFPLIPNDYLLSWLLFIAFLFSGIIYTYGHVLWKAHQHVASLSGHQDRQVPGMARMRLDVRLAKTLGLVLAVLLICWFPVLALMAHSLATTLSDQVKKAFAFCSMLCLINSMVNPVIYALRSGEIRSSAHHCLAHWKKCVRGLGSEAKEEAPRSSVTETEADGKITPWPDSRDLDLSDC

human CB1 receptor = target: T2, human CB1 receptor (Homo sapiens, UniProt P21554); assay: CB1 radioligand competitive binding assay ([3H]CP 55,940 displacement)
T2 construct: host or cells: CHO-K1 (Chinese hamster ovary) cells, stably transfected; membranes prepared in house
T2 sequence (P21554 whole entry): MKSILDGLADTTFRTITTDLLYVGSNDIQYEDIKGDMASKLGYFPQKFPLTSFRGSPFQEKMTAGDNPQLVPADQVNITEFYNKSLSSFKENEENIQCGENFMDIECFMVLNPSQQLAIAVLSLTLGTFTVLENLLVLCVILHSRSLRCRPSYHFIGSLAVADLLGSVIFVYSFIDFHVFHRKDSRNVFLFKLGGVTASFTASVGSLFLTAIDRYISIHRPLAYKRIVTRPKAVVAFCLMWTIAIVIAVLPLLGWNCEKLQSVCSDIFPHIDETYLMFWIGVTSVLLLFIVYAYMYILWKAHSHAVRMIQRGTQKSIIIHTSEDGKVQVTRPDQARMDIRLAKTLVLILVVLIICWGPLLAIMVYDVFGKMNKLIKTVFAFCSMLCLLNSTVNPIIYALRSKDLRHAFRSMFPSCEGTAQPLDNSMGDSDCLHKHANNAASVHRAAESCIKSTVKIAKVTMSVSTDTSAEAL

[1] = [3H]CP 55,940 displacement, membranes of CHO-K1 cells expressing human CB2 receptor, read-out: CB2 IC50
[2] = [3H]CP 55,940 displacement, membranes of CHO-K1 cells expressing human CB1 receptor, read-out: CB1 IC50

## CCCCCc1cc(OCOCCOC)c(-c2cccc(C)c2)c(OCOCCOC)c1 [2′a, 2,6-bis((2-methoxyethoxy)methoxy)-3′-methyl-4-pentyl-1,1′-biphenyl]
Human CB2 receptor; [1]
  IC50: 50 to 990 nM
Human CB2 receptor
  Selectivity CB2: 19.73
Human CB1 receptor; [2]
  IC50: > 10000 nM

## CCCCCc1cc(OCOCCOC)c(C2C=C(C)CCC2)c(OCOCCOC)c1 (centres unmarked) [2′c, 2′,6′-bis((2-methoxyethoxy)methoxy)-5-methyl-4′-pentyl-1,2,3,4-tetarhydro-1,1′-biphenyl]
Human CB2 receptor; [1]
  IC50: < 50 nM
Human CB2 receptor
  Selectivity CB2: 6.38
Human CB1 receptor; [2]
  IC50: 50 to 990 nM

## C=C(C)C1CCC(C)=CC1c1c(OCOCCOC)cc(CCCCC)cc1OCOCCOC (centres unmarked) [2′d, 2′,6′-bis((2-methoxyethoxy)methoxy)-5-methyl-4′-pentyl-2-(prop-1-en-2-yl)-1,2,3,4-tetrahydro-1,1′-biphenyl]
Human CB2 receptor; [1]
  IC50: 50 to 990 nM
Human CB2 receptor
  Selectivity CB2: 2.50
Human CB1 receptor; [2]
  IC50: 1000 to 9990 nM

## CCCCCc1cc(OCOC(=O)C(C)(C)C)c(-c2cccc(C)c2)c(OCOC(=O)C(C)(C)C)c1 [8′a, [3-(2,2-dimethylpropanoyloxymethoxy)-2-(m-tolyl)-5-pentyl-phenoxy]methyl 2,2-dimethylpropanoate]
Human CB2 receptor; [1]
  IC50: 50 to 990 nM
Human CB2 receptor
  Selectivity CB2: 7.14
Human CB1 receptor; [2]
  IC50: 50 to 990 nM

## CCCCCc1cc(OCOC(=O)C(C)(C)C)c(C2C=C(C)CCC2)c(OCOC(=O)C(C)(C)C)c1 (centres unmarked) [8′c, ((5′-methyl-4-pentyl-1′,2′,3′,4′-tetrahydro-[1,1′-biphenyl]-2,6-diyl)bis(oxy))bis(methylene)bis(2,2-dimethylpropanoate)]
Human CB2 receptor; [1]
  IC50: < 50 nM
Human CB2 receptor
  Selectivity CB2: 6.38
Human CB1 receptor; [2]
  IC50: 50 to 990 nM

## C=C(C)C1CCC(C)=CC1c1c(OCOC(=O)C(C)(C)C)cc(CCCCC)cc1OCOC(=O)C(C)(C)C (centres unmarked) [8′d, ((5′-methyl-4-pentyl-2′-(prop-1-en-2-yl)-1′,2′,3′,4′-tetrahydro-[1,1′-biphenyl]-2,6-diyl)bis(oxy))bis(methylene) bis(2,2-dimethylpropanoate)]
Human CB2 receptor; [1]
  IC50: 1000 to 9990 nM
Human CB2 receptor
  Selectivity CB2: 2.00
Human CB1 receptor; [2]
  IC50: 1000 to 9990 nM

## CCCCCc1cc(OCN(C(=O)OC)c2ccccc2)c(-c2cccc(C)c2)c(OCN(C(=O)OC)c2ccccc2)c1 [14′a, dimethyl (((3′-methyl-4-pentyl-[1,1′-biphenyl]-2,6-diyl)bis(oxy))bis(methylene))bis(phenylcarbamate)]
Human CB2 receptor; [1]
  IC50: 50 to 990 nM
Human CB2 receptor
  Selectivity CB2: 4.40
Human CB1 receptor; [2]
  IC50: 50 to 990 nM

## CCCCCc1cc(OCN(C(=O)OC)c2ccccc2)c(C2C=C(C)CCC2)c(OCN(C(=O)OC)c2ccccc2)c1 (centres unmarked) [14′c, dimethyl (((5′-methyl-4-pentyl-1′,2′,3′,4′-tetrahydro-[1,1′-biphenyl]-2,6-diyl)bis(oxy))bis(methylene))bis(phenylcarbamate)]
Human CB2 receptor; [1]
  IC50: 50 to 990 nM
Human CB2 receptor
  Selectivity CB2: 62.50
Human CB1 receptor; [2]
  IC50: 1000 to 9990 nM

## CCCCCc1cc(OCOCC)c(-c2cccc(C)c2)c(OCOCC)c1 [17′a, 2,6-bis(ethoxymethoxy)-3′-methyl-4-pentyl-1,1′-biphenyl]
Human CB2 receptor; [1]
  IC50: 50 to 990 nM
Human CB2 receptor
  Selectivity CB2: 8.97
Human CB1 receptor; [2]
  IC50: 1000 to 9990 nM

## CCCCCc1cc(OCOCC)c(C2C=C(C)CCC2)c(OCOCC)c1 (centres unmarked) [17′c, 2′,6′-bis(ethoxymethoxy)-5-methyl-4′-pentyl-1,2,3,4-tetrahydro-1,1′-biphenyl]
Human CB1 receptor; [2]
  IC50: 1000 to 9990 nM

## C=C(C)C1CCC(C)=CC1c1c(OCOCC)cc(CCCCC)cc1OCOCC (centres unmarked) [17′d, 2′,6′-bis(ethoxymethoxy)-5-methyl-4′-pentyl-2-(prop-1-en-2-yl)-1,2,3,4-tetrahydro-1,1′-biphenyl]
Human CB2 receptor; [1]
  IC50: 50 to 990 nM
Human CB2 receptor
  Selectivity CB2: 3.03
Human CB1 receptor; [2]
  IC50: 1000 to 9990 nM

## C=C(C)C1CCC(C)=CC1c1c(OCOC2CCCCC2)cc(CCCCC)cc1OCOC1CCCCC1 (centres unmarked) [18′d, 2′,6′-bis((cyclohexyloxy)methoxy)-5-methyl-4′-pentyl-2-(prop-1-en-2-yl)-1,2,3,4-tetrahydro-1,1′-biphenyl]
Human CB2 receptor; [1]
  IC50: > 10000 nM
Human CB2 receptor
  Selectivity CB2: 1.00
Human CB1 receptor; [2]
  IC50: > 10000 nM
Human CB1 receptor; fold difference between CB1 and CB2 binding, printed in column of receptor with higher affinity, 1.00 in both = same affinity
  Selectivity CB1: 1.00

## C=C(C)C1CCC(C)=CC1c1c(OCOCC)cc(C(C)(C)CCCCCC)cc1OCOCC (centres unmarked) [19′d, 2′,6′-bis(ethoxymethoxy)-5-methyl-4′-(2-methyloctan-2-yl)-2-(prop-1-en-2-yl)-1,2,3,4-tetrahydro-1,1′-biphenyl]
Human CB2 receptor; [1]
  IC50: 1000 to 9990 nM
Human CB2 receptor
  Selectivity CB2: 2.00
Human CB1 receptor; [2]
  IC50: 1000 to 9990 nM

## C=C(C)C1CCC(C)=CC1c1c(OCN(C(=O)OC)c2ccccc2)cc(C(C)(C)CCCCCC)cc1OCN(C(=O)OC)c1ccccc1 (centres unmarked) [20′d, dimethyl (((5′-methyl-4-(2-methyloctan-2-yl)-2′-(prop-1-en-2-yl)-1′,2′,3′,4′-tetrahydro-[1,1′-biphenyl]-2,6-diyl)bis(oxy))bis(methylene))bis(phenylcarbamate)]
Human CB2 receptor; [1]
  IC50: 1000 to 9990 nM
Human CB2 receptor
  Selectivity CB2: 1.25
Human CB1 receptor; [2]
  IC50: > 10000 nM

## C=C(C)C1CCC(C)=CC1c1c(OCOC(=O)C(C)(C)C)cc(C(C)(C)CCCCCC)cc1OCOC(=O)C(C)(C)C (centres unmarked) [21′d, ((5′-methyl-4-(2-methyloctan-2-yl)-2′-(prop-1-en-2-yl)-1′,2′,3′,4′-tetrahydro-[1,1′-biphenyl]-2,6-diyl)bis(oxy))bis(methylene) bis(2,2-dimethylpropanoate)]
Human CB2 receptor; [1]
  IC50: 1000 to 9990 nM
Human CB2 receptor
  Selectivity CB2: 13.33
Human CB1 receptor; [2]
  IC50: > 10000 nM

## CCCCCc1cc(O)c(-c2cccc(C)c2)c(OCOCCOC)c1 [Compound 2a, 6-((2-methoxyethoxy)methoxy)-3′-methyl-4-pentyl-[1,1′-biphenyl]-2-ol]
Human CB2 receptor; [1]
  IC50: 50 to 990 nM
Human CB2 receptor
  Selectivity CB2: 11.11
Human CB1 receptor; [2]
  IC50: 1000 to 9990 nM

## CCCCCc1cc(O)c(C2C=C(C)CCC2)c(OCOCCOC)c1 (centres unmarked) [Compound 2c, 6-((2-methoxyethoxy)methoxy)-5′-methyl-4-pentyl-1′,2′,3′,4′-tetrahydro-[1,1′-biphenyl]-2-ol]
Human CB2 receptor; [1]
  IC50: 50 to 990 nM
Human CB2 receptor
  Selectivity CB2: 13.33
Human CB1 receptor; [2]
  IC50: 1000 to 9990 nM

## C=C(C)C1CCC(C)=CC1c1c(O)cc(CCCCC)cc1OCOCCOC (centres unmarked) [Compound 2d, 6-((2-methoxyethoxy)methoxy)-5′-methyl-4-pentyl-2′-(prop-1-en-2-yl)-1′,2′,3′,4′-tetrahydro-[1,1′-biphenyl]-2-ol]
Human CB2 receptor; [1]
  IC50: 1000 to 9990 nM
Human CB2 receptor
  Selectivity CB2: 1.59
Human CB1 receptor; [2]
  IC50: 1000 to 9990 nM

## CCCCCc1cc(O)c(-c2cccc(C)c2)c(OCOC(=O)OCC)c1 [Compound 5a, ethyl [3-hydroxy-2-(m-tolyl)-5-pentyl-phenoxy]methyl carbonate]
Human CB2 receptor
  IC50: 50 to 990 nM
  Selectivity CB2: 7.89
Human CB1 receptor
  IC50: 1000 to 9990 nM

## CCCCCc1cc(O)c(C2C=C(C)CCC2)c(OCOC(=O)OCC)c1 (centres unmarked) [Compound 5c, ethyl (((6-hydroxy-5′-methyl-4-pentyl-1′,2′,3′,4′-tetrahydro-[1,1′-biphenyl]-2-yl)oxy)methyl) carbonate]
Human CB2 receptor; [1]
  IC50: 50 to 990 nM
Human CB2 receptor
  Selectivity CB2: 9.09
Human CB1 receptor; [2]
  IC50: 1000 to 9990 nM

## C=C(C)[C@@H]1CCC(C)=C[C@H]1c1c(O)cc(CCCCC)cc1OCOC(=O)OCC [Compound 5d, ethyl (((6-hydroxy-5′-methyl-4-pentyl-2′-(prop-1-en-2-yl)-1′,2′,3′,4′-tetrahydro-[1,1′-biphenyl]-2-yl)oxy)methyl) carbonate]
Human CB2 receptor
  IC50: 1000 to 9990 nM
  Selectivity CB2: 2.00
Human CB1 receptor
  IC50: 1000 to 9990 nM

## CCCCCc1cc(O)c(-c2cccc(C)c2)c(OCOC(=O)C(C)(C)C)c1 [Compound 8a, [3-hydroxy-2-(m-tolyl)-5-pentyl-phenoxy]methyl 2,2-dimethylpropanoate]
Human CB2 receptor; [1]
  IC50: < 50 nM
Human CB2 receptor
  Selectivity CB2: 9.39
Human CB1 receptor; [2]
  IC50: 50 to 990 nM
